Reference: patent US4758580A, “Inhibiting growth of tumors with certain substituted phenoxy dimethyl alkanoic acids, esters or salts” (Yamanouchi Pharmaceutical Co., Ltd., priority 1985, dated 1988)
Values after ≈ are worked out from the molar mass of the structure shown.

Legend:
[1] = system: Meth A (methylcholanthrene-induced cancer); test: In vitro cytotoxicity against mouse tumor cells, Meth A; type: cell-based; details: 72 h, Meth A, 3 days, 37° C., trypan blue, read-out: IC50
Protocol: (§1) A suspension of cells in a culture medium was transferred into wells in a microplate in an amount of 1×10^5 cells/wall. Test sample diluted with a culture medium was added to the suspension in each well, and the mixture was incubated on the medium at 37° C. for 3 days in atmosphere of air containing 5% carbon dioxide. Thereafter, the incubated cells were recovered from the microplate and the number of live cells was counted by the dye exclusion test using a 0.5% solution of trypan blue and by using a hemocytomer.

[2] = system: liver cancer (MH-134) cells; test: Inhibition of spontaneous metastasis (to the lymph node) of liver cancer (MH-134) cells in mice; type: in vivo, C3 H/He/SLC mice; details: 20th day
Protocol: (a) Inhibition of spontaneous metastasis (to the lymph node) of liver cancer (MH-134) cells in mice
MH-134 tumor cells, 1×10^6, on Day 7 after intraperitoneal transplantation to C3 H/He/SLC mice were transplanted to the right leg. On the 11th day after the transplantation, the right leg portion wherein the cancer cells were transplanted were cut off. The test compounds were administered orally in a definite dose 24 hours after the transplantation. In order to confirm metastasis-inhibiting effect, on 20th day of the transplantation the mice were anatomised to observe the metastasis to the lymph node in the inguinal portion. [formula] Further, the weight of the lymph node metastasis tumor in the inguinal portion of anatomised mice was measured. [formula]

Ehrlich (carcinoma) = test: In vitro cytotoxicity against mouse tumor cells, Ehrlich; type: cell-based; details: 72 h, Ehrlich (carcinoma), 3 days, 37° C., trypan blue, read-out: IC50
Protocol: as §1

Ehrlich solid tumor = test: Anti-tumor test against Ehrlich solid tumor; type: in vivo, ddY/SLC mice
Protocol: Ehrlich tumor cells, 2×10^6, on Day 7 after intraperitoneal transplantation to ddY/SLC mice were subcutaneously transplanted in the left abdomen of ddY/SLC mice (5 week age, male), 10 each grouped into one. The active component was intraperitoneally or orally administered in a definite dose 24 hours after the transplantation, according to the schedule shown in Table 1 (A), (B) or (C). An effect of inhibiting growth of tumor was compared, by measuring the long diameter and short diameter of the tumor on 14, 20 and 21 Days after the transplantation, calculating the tumor size (mm^2) and determining a tumor growth inhibition rate of the group administered with the active component to the control group according to the following equation:
Growth inhibition rate (%)=(C-T)/C×100
T: means tumor size (mm^2) in the active component-administered group
C: mean tumor size (mm^2) in the control group

Hela (uterine cancer) = test: In vitro cytotoxicity against human tumor cells, Hela; type: cell-based; details: 72 h, 3 days, 37° C., crystalviolet
Protocol: (§2) A suspension of cells in a culture medium was transferred into wells in a microplate in an amount of 5×10^4 cells/well. Test sample diluted with a culture medium was added to the suspension in each well, and the mixture was incubated at 37° C. for 3 days in an atmosphere of air containing 5% carbon dioxide. After skimming, sticking cells were dyed which crystalviolet for 10 minutes. After washing with water, 1% sodium lauryl sulfate solution was added to each well, and the absrobancy (optical density) at […] was measured. "% inhibition" was calculated from the following equation. [formula]

MM-46 ascites tumor = test: Anti-tumor test against mice mammary cancer MM-46 ascites tumor; type: in vivo, C3 H/He/CRJ mice
Protocol: MM-46 tumor cells, 1×10^6, on Day 7 after intraperitoneal transplantation to C3 H/He/CRJ mice (5 week age, male) of 10 mice each being grouped in one. The active component was intraperitoneally administered in a definite dose 24 hours after the transplantation according to the schedule shown in Table 5. An effect of tumor growth inhibition was evaluated by a percentage of the median survival time of the administered group versus that of the control group, according to the following equation.
T: median survival day of the administered group
C: median survival day of the control group

Meth A solid tumor = test: Anti-tumor test against methyl cholanthrene-induced Meth A solid tumor; type: in vivo, Balb/C/SLC mice; details: 1-8 Days
Protocol: Meth A tumor cells, 1.5×10^6, on Day 7 after intraperitoneal transplantation to Balb/C/SLC mice were subcutaneously transplanted to the left abdomen of Balb/C/SLC mice (5 week age, male) of 8 mice each being grouped in one (16 mice for the control group). The active component was orally administered in a definite dose 24 hours after the transplantation according to the schedule shown in Table 3. An effect of tumor growth inhibition was compared by measuring the long diameter and short diameter of the tumor on Days 15 and 21 after the transplantation, calculating the tumor size (mm^2) and determining a tumor growth inhibition rate of the active component-administered group to the control group.

[3] = Toxicity test (acute, oral); details: mouse, in vivo, ddY mice, male
Protocol: The active component was orally administered to ddY mice (mean body weight of 35 g, male). No example of death was noted up to the dose of 5,000 mg/kg. Accordingly, the acute toxicity of Compound B is greater than 5,000 mg/kg. (Effects)

[4] = system: KB (nasal cavity & pharynx cancer); test: In vitro cytotoxicity against human tumor cells, KB; type: cell-based; details: 72 h, KB, 3 days, 37° C., crystalviolet, read-out: IC50
Protocol: as §2

[5] = 100 mg/kg oral, 1, 3, 5, 7, 9, 11, 13 and 15 days
[6] = 200 mg/kg oral, 1, 3, 5, 7, 9, 11, 13 and 15 days
[7] = 400 mg/kg oral, 1, 3, 5, 7, 9, 11, 13 and 15 days
[8] = Day 14, 60 mg/kg i.p., Days 1, 2, 3, 4, 7, 8, 10 & 13
[9] = Day 14, 100 mg/kg i.p., Days 1, 3, 7, 10, 13 & 14
[10] = Day 14, 200 mg/kg p.o., Days 1, 2, 3, 4, 7, 8, 10 & 13
[11] = Day 21, 60 mg/kg i.p., Days 1, 2, 3, 4, 7, 8, 10 & 13
[12] = Day 21, 100 mg/kg i.p., Days 1, 3, 7, 10, 13 & 14
[13] = Day 21, 200 mg/kg p.o., Days 1, 2, 3, 4, 7, 8, 10 & 13
[14] = 6.25 mg/kg i.p., 1, 2, 3, 4 and 6 Days
[15] = 12.5 mg/kg i.p., 1, 2, 3, 4 and 6 Days
[16] = 25 mg/kg i.p., 1, 2, 3, 4 and 6 Days
[17] = 50 mg/kg i.p., 1, 2, 3, 4 and 6 Days
[18] = 100 mg/kg i.p., 1, 2, 3, 4 and 6 Days
[19] = 200 mg/kg i.p., 1, 2, 3, 4 and 6 Days

CCOC(=O)C(C)(C)CCCCOc1ccc(OCCCCCn2ccnc2)cc1 [Compound B]
IC50 [1]: 0.8 µg/mL (≈ 1.92 µM)
Growth inhibition of the metastasis tumor [2, 5]: 33.8%
Metastasis-inhibition rate [2, 5]: 8.5%
Growth inhibition of the metastasis tumor [2, 6]: 79.4%
Metastasis-inhibition rate [2, 6]: 41.2%
Growth inhibition of the metastasis tumor [2, 7]: 80.4%
Metastasis-inhibition rate [2, 7]: 73.9%
IC50 (Ehrlich (carcinoma)): 0.5 µg/mL (≈ 1.2 µM)
Growth Inhibition Rate (Ehrlich solid tumor; [8]): 25.7%
Size of Tumor (Ehrlich solid tumor; [8]): 107.3 ± 54.6 mm^2
Growth Inhibition Rate (Ehrlich solid tumor; [9]): 51.4%
Size of Tumor (Ehrlich solid tumor; [9]): 70.1 ± 33.8 mm^2
Growth Inhibition Rate (Ehrlich solid tumor; [10]): 66.3%
Size of Tumor (Ehrlich solid tumor; [10]): 48.7 ± 44.3 mm^2
Growth Inhibition Rate (Ehrlich solid tumor; [11]): 37.0%
Size of Tumor (Ehrlich solid tumor; [11]): 323.3 ± 163.4 mm^2
Growth Inhibition Rate (Ehrlich solid tumor; [12]): 38.5%
Size of Tumor (Ehrlich solid tumor; [12]): 315.3 ± 235.3 mm^2
Growth Inhibition Rate (Ehrlich solid tumor; [13]): 78.7%
Size of Tumor (Ehrlich solid tumor; [13]): 109.2 ± 133.5 mm^2
IC50 (Hela (uterine cancer)): 2.05 µg/mL (≈ 4.92 µM)
Median Survival Day (MM-46 ascites tumor; [14]): 7.0 days
Survivors (90 days) (MM-46 ascites tumor; [14]): 0/10
T/C (median survival) (MM-46 ascites tumor; [14]): 93.3%
Median Survival Day (MM-46 ascites tumor; [15]): 7.0 days
Survivors (90 days) (MM-46 ascites tumor; [15]): 0/10
T/C (median survival) (MM-46 ascites tumor; [15]): 93.3%
Median Survival Day (MM-46 ascites tumor; [16]): 8.5 days
Survivors (90 days) (MM-46 ascites tumor; [16]): 0/10
T/C (median survival) (MM-46 ascites tumor; [16]): 113.3%
Median Survival Day (MM-46 ascites tumor; [17]): 34.0 days
Survivors (90 days) (MM-46 ascites tumor; [17]): 0/10
T/C (median survival) (MM-46 ascites tumor; [17]): 453.3%
Median Survival Day (MM-46 ascites tumor; [18]): 49.0 days
Survivors (90 days) (MM-46 ascites tumor; [18]): 1/10
T/C (median survival) (MM-46 ascites tumor; [18]): 653.3%
Median Survival Day (MM-46 ascites tumor; [19]): 18.5 days
Survivors (90 days) (MM-46 ascites tumor; [19]): 0/10
T/C (median survival) (MM-46 ascites tumor; [19]): 246.7%
Growth Inhibition Rate (Meth A solid tumor; Day 15, 100 mg/kg p.o.): 27.5%
Size of Tumor (Meth A solid tumor; Day 15, 100 mg/kg p.o.): 163.0 ± 41.9 mm^2
Growth Inhibition Rate (Meth A solid tumor; Day 15, 200 mg/kg p.o.): 46.4%
Size of Tumor (Meth A solid tumor; Day 15, 200 mg/kg p.o.): 124.5 ± 60.2 mm^2
Growth Inhibition Rate (Meth A solid tumor; Day 15, 400 mg/kg p.o.): 53.6%
Size of Tumor (Meth A solid tumor; Day 15, 400 mg/kg p.o.): 104.4 ± 56.9 mm^2
Growth Inhibition Rate (Meth A solid tumor; Day 21, 100 mg/kg p.o.): 18.8%
Size of Tumor (Meth A solid tumor; Day 21, 100 mg/kg p.o.): 387.9 ± 101.8 mm^2
Growth Inhibition Rate (Meth A solid tumor; Day 21, 200 mg/kg p.o.): 39.2%
Size of Tumor (Meth A solid tumor; Day 21, 200 mg/kg p.o.): 290.8 ± 100.9 mm^2
Growth Inhibition Rate (Meth A solid tumor; Day 21, 400 mg/kg p.o.): 41.6%
Size of Tumor (Meth A solid tumor; Day 21, 400 mg/kg p.o.): 279.3 ± 152.1 mm^2
LD50 [3]: > 5000 mg/kg
IC50 [4]: 1.15 µg/mL (≈ 2.76 µM)
